Measurements from a melting point compilation (Tetko et al.; mined from patent text by program, amines drawn as free bases though some values may be those of a salt).

Row | Structure (SMILES) | melting point
1 | O=S(=O)(C(/C=C/c1ccc(F)cc1)c1c(F)c(F)c(F)c(F)c1F)C(/C=C/c1ccc(F)cc1)c1c(F)c(F)c(F)c(F)c1F (configuration not stated) | 133 to 136 °C
2 | N#Cc1ccc(CNC(c2ccccc2)c2ccccc2)cc1 | 75 °C
3 | O=C(NC(Cc1ccccc1)C(=O)O)OCc1ccc(COCc2ccccc2)cc1 (configuration not stated) | 78.3 to 79.9 °C
4 | S=C(Cc1ccccc1)c1ccccc1 | 52 to 53 °C
5 | CS(=O)(=O)NCc1cc(-c2ccccc2)c2c(n1)OCCN(Cc1cc(C(F)(F)F)cc(C(F)(F)F)c1)C2=O | 194 to 195 °C
6 | CCOC(=O)C1CNc2ccc(C)cc2O1 (configuration not stated) | 90 to 92 °C
7 | CC(C)Nc1c(C#N)cnn1-c1c(Cl)cc(SC(F)(F)F)cc1Cl | 130 °C
8 | CC(C(=O)NO)c1ccc(C(=O)c2cccs2)cc1 (configuration not stated) | 144 °C
9 | CC[C@@H](C)NC1=NS(=O)(=O)c2sc(Cl)cc2N1 | 215 to 220 °C
10 | Nc1cc(F)c2c(c1)Cc1cc(F)ccc1-2 | 119 to 120 °C
11 | Cc1c(C(=O)O)sc2[nH]c(=O)c(=O)[nH]c12 | 289 to 294 °C
12 | CCCCc1nn(-c2ccc(NCc3ccccc3)cc2C(F)(F)F)c(=O)n1Cc1ccc(-c2ccccc2S(=O)(=O)NC(=O)c2ccccc2Cl)cc1 | > 107 °C
13 | CO/N=C(/C(C)=O)C(=O)OC(C)(C)C | 80 to 85 °C
14 | Cc1ccc(OCCCCOc2ccc(C)cc2)cc1 | 104 °C
15 | Cc1c(C)c2c(c(C)c1OCc1ccccc1)CCC(C)(CC=O)O2 (configuration not stated) | 70 to 75 °C
16 | CCOC(=O)c1[nH]cnc1CC | 170 to 172 °C
17 | CCOC(=O)c1cc(C=O)ccc1O | 67 to 69 °C
18 | Nc1cc2[nH]c(=O)c(=O)[nH]c2cc1[N+](=O)[O-] | > 330 °C
19 | O=C1NC(CO)Cc2c[nH]c3cccc1c23 (configuration not stated) | 186 to 187 °C
20 | CCCc1cc(C#N)sc1-c1ccc2c(c1)C(C)(C)OC(=S)N2 | 174 to 175 °C
21 | COC1C=C(C)C(=O)CC(C)(C)C1OC(=O)Cc1csc(N)n1 (configuration not stated) | 116 to 117 °C
22 | CCON=C(C(N)=O)C(=O)OC | 68 to 71 °C
23 | CCCc1cc(CCC)c2oc(Cc3ccc(OC)cc3)c(C)c2c1O | 70 to 72 °C
24 | CN1C(=O)SC(=Cc2ccc([N+](=O)[O-])cc2)C1=O | 233 to 234 °C

Other lines, results leading:

Row | melting point | Structure (SMILES)
25 | 206 to 208 °C | CC1=C(Cc2ccc(C(=O)O)cc2)C(=O)C2C=CC=CC2C1=O (configuration not stated)
26 | 71.5 °C | COc1ccc(C2=C(C(=O)N3CCOCC3)C(=O)c3ccccc32)cc1OC
27 | 87 to 89 °C | BrCCCCCCOc1nc(-c2ccccc2)c(-c2ccccc2)n1-c1ccccc1
28 | 212 to 214 °C | COc1ccc2cc(C(N)=O)ccc2n1
29 | 85 to 87 °C | CC(C)(C)OC(=O)N1CCC[C@@H](Nc2ncc3c(n2)-c2ccccc2[C@@H](c2ccc(Cl)c(Cl)c2)C3)C1
30 | 176 to 178 °C | CCn1c(=O)nc(-c2ccccc2)c2cc(Cl)ccc21
31 | 138 to 140 °C | CC(Cl)(Cl)C(NC(=O)c1cc(Cl)cc(Cl)c1)NC(=NC#N)Nc1ccc(Cl)nc1 (configuration not stated)
32 | 99 to 100 °C | COC(=O)c1ccc2c(c1)CCN2Cc1cccc([N+](=O)[O-])c1
33 | 136 °C | CC(C)(C)OC(=O)NCc1ccccc1-c1ccccc1C(=O)O
34 | 228 to 229 °C | CNc1nc(C)c(-c2cn3ccccc3n2)s1
35 | 174 °C | Cn1nc(-c2ccc(F)cc2)c(-c2ccncc2)c1Br
36 | 262 to 265 °C | CC1(C)C(=O)Oc2ccc3cc(C(=O)O)c(Cn4cncn4)cc3c21
37 | 160 °C | Cn1cncc1C(O)(c1ccc(Cn2cnnn2)cc1)c1ccc2c(c1)c(-c1cccc(Cl)c1)cc(=O)n2C (configuration not stated)
38 | 135 to 136 °C | CC(C)n1cnc2c(Cl)nc(N)nc21
39 | 189 to 191 °C | Clc1ccc(C#Cc2ccc(C#Cc3cc4ccccc4s3)s2)cc1
40 | 245 to 247 °C | NC(=O)Cn1c(-c2cccc(Cl)c2)nc2cccnc21
41 | 128 °C | Fc1cc(Cl)ccc1-n1nn[nH]c1=S
42 | 242 to 245 °C | Cn1c2c(c3cccc(-c4ccccc4)c31)C(=O)NCC2
